Data taken from US20070292392A1, “USE OF THYMOSIN ALPHA 1 FOR PREPARING A MEDICAMENT FOR THE TREATMENT OF STAGE IV MALIGNANT MELANOMA” (SIGMA-TAU INDUSTRIE FARMACEUTICHE RIUNITE S.P.A., priority 2006, published 2007).
Ends that are not written are not given here.

Key:
[1] = tested on: stage IV melanoma characterized by distant unresectable metastases; assay: Phase II clinical trial with DTIC plus Tα1 with or without IFNα vs DTIC plus IFNα; tumor response by RECIST; type: in vivo, human; conditions: preliminary analysis on 142 patients; at the higher doses of Tα1
From the text: Phase II Clinical Trial with Dacarbazine (DTIC) Plus Thymosin alpha 1 (Tα1) with or without Interferon alpha (IFNα) vs DTIC Plus IFNα in Stage IV Melanoma Characterized by Distant Unresectable Metastases
Trial Design phase II, randomized, stratified, open-study testing different doses of Tα1 in association with DTIC and IFNα, as first line therapy for stage IV melanoma patients characterized by distant unresectable metastases (AJCC; Journal of Clinical Oncology 2001, 19: 3635-3648) without brain metastases. The primary study end-point was tumor response, and the following combination composition were used:
The protocol was than amended: 30 patients were added to each of the 2 triple therapies in order to balance the sample size of all the four groups and the following new group (using a higher dose of Tα1) was added:
The five groups were analyzed independently one another within the so-called “pick the winner” strategy.
Methods: Recycling every 28 days, patients were administered DTIC (800 mg/m^2) i.v. at day 1, Tα1 (1.6 or 3.2 mg) s.c. at days 8-11 and 15-18, and IFNα (3 MIU) s.c. at day 11 and 18. Clinical response was evaluated every two cycles according to RECIST criteria (New Guidelines to Evaluate the Response to Treatment in Solid Tumors; Journal of the National Cancer Institute, 2000. 92: 205-216) utilizing a central reader. […]

[2] = tested on: human non-small cell lung cancer (NSCLC) cells; conditions: subcutaneous 1 or 10 mg per day; nude mice previously inoculated with human NSCLC cells; cited from earlier work
lymphosarcoma cells = conditions: BALB/c mice; cited from earlier work
metastatic melanoma = conditions: cited from earlier work

Molecule | dose-response effect on tumor response [1] | tumor volume [2] | local sarcoma growth as well as liver and lung metastases of lymphosarcoma cells (lymphosarcoma cells) | duration of responses (short-lived) (metastatic melanoma; DTIC responses) | effect of responses on patients' overall survival (metastatic melanoma; DTIC) | actual overall responses to DTIC (metastatic melanoma; Journal of Clinical Oncology and ASCO proceedings 2004)
thymosin alpha 1 (SDAAVDTSSEITTKDLKEKKEVVEEAEN; ends and bridges not checked; UniProt P06454 2-29, looked up) [a compound well known in the medical field] | clear dose-response effect | significantly decreased | significantly reduced |  |  | 
CN(C)/N=N/c1[nH]cnc1C(N)=O [DTIC, Dacarbazine] |  |  |  | three to six | no evidence that these responses have any effect on the patients' overall survival | 5.5-6.8%
